Patent US4308259A, “Penicillin derivatives” (Beecham Group Limited, priority 1979, dated 1981)
Counter-ions that a name gives are not always drawn. Like-named read-outs stand apart in the source and are kept apart here.

Columns and labels:
Format in all cases: cell-based
E. coli JT 4 = experiment: MIC (antibacterial activity) against E. coli JT 4; conditions: Escherichia coli, JT4
E. coli JT 425 = experiment: MIC against E. coli JT 425; conditions: Escherichia coli, JT425
E. coli NCTC 10418 = experiment: MIC against E. coli NCTC 10418; conditions: Escherichia coli, NCTC10418
[1] = system: Ps. aeruginosa NCTC 10662; experiment: MIC against Ps. aeruginosa NCTC 10662
Ps. aeruginosa Dalgleish = experiment: MIC against Ps. aeruginosa Dalgleish; conditions: Pseudomonas aeruginosa; Ps. aeruginosa Dalgleish 10^-2
S. marcescens US 32 = experiment: MIC against S. marcescens US 32; conditions: Serratia marcescens, US32
K. aerogenes A = experiment: MIC against K. aerogenes A; conditions: Klebsiella aerogenes
E. cloacae N1 = experiment: MIC against E. cloacae N1; conditions: Enterobacter cloacae
P. mirabilis C 977 = experiment: MIC against P. mirabilis C 977; conditions: Proteus mirabilis, C977
P. mirabilis 889 = experiment: MIC against P. mirabilis 889; conditions: Proteus mirabilis
P. morganii = experiment: MIC against P. morganii; conditions: Morganella morganii
P. rettgeri = experiment: MIC against P. rettgeri; conditions: Providencia rettgeri
B. subtilis = experiment: MIC against B. subtilis; conditions: Bacillus subtilis
S. aureus Oxford = experiment: MIC against S. aureus Oxford; conditions: Staphylococcus aureus
S. aureus Russell = experiment: MIC against S. aureus Russell; conditions: Staphylococcus aureus
N. catarrhalis 1502 = experiment: MIC against N. catarrhalis 1502
S. faecalis I = experiment: MIC against S. faecalis I; conditions: Enterococcus faecalis
S. pyogenes CN 10 = experiment: MIC against S. pyogenes CN 10; conditions: Streptococcus pyogenes, CN10
[2] = Pseudomonas aeruginosa, NCTC10662, Ps. aeruginosa NCTC 10662 10^-2, read-out: MIC
[3] = Pseudomonas aeruginosa, NCTC10662, Ps. aeruginosa NCTC 10662, read-out: MIC

| Structure (SMILES) | MIC (E. coli JT 4) | MIC (E. coli JT 425; E. coli JT 425, read-out: MIC) | MIC (E. coli NCTC 10418) | MIC [1, 2] | MIC [1, 3] | MIC (Ps. aeruginosa Dalgleish) | MIC (S. marcescens US 32) | MIC (K. aerogenes A) | MIC (E. cloacae N1) | MIC (P. mirabilis C 977) | MIC (P. mirabilis 889) | MIC (P. morganii) | MIC (P. rettgeri; P. rettgeri, read-out: MIC) | MIC (B. subtilis) | MIC (S. aureus Oxford) | MIC (S. aureus Russell) | MIC (N. catarrhalis 1502) | MIC (S. faecalis I) | MIC (S. pyogenes CN 10) | other results |
| --- | --- | --- | --- | --- | --- | --- | --- | --- | --- | --- | --- | --- | --- | --- | --- | --- | --- | --- | --- | --- |
| CO[C@@]1(NC(=O)C(c2ccccc2F)S(=O)(=O)O)C(=O)N2[C@@H](C(=O)O)C(C)(C)S[C@@H]21 (stereo partly drawn) [Example 9, Disodium 6,β-[2-(2-fluorophenyl)-2-sulphoacetamido]-6,α-methoxypenicillanate] | 25 µg/mL | 10 µg/mL | 10 µg/mL | 100 µg/mL | > 100 µg/mL | 100 µg/mL | 50 µg/mL | 2.5 µg/mL | 2.5 µg/mL | 5 µg/mL | 5 µg/mL | 5 µg/mL | 5 µg/mL | 25 µg/mL | 25 µg/mL | 50 µg/mL | < 0.02 µg/mL | > 100 µg/mL | 5 µg/mL | – |
| CO[C@@]1(NC(=O)C(c2ccccc2)S(=O)(=O)O)C(=O)N2[C@@H](C(=O)O)C(C)(C)S[C@@H]21 (stereo partly drawn) [Example 1, Disodium 6,α-methoxy-6,β -(2-phenyl-2-sulphoacetamido) penicillanate] | 25 µg/mL | 10 µg/mL | 25 µg/mL | > 100 µg/mL | > 100 µg/mL | 50 µg/mL | > 100 µg/mL | 2.5 µg/mL | 25 µg/mL | 5 µg/mL | 5 µg/mL | 10 µg/mL | 10 µg/mL | > 100 µg/mL | > 100 µg/mL | > 100 µg/mL | – | > 100 µg/mL | 50 µg/mL | – |
| CO[C@@]1(NC(=O)C(c2ccccc2)P(=O)(O)OC)C(=O)N2[C@@H](C(=O)O)C(C)(C)S[C@@H]21 (stereo partly drawn) [Example 6, 6,α-Methoxy-6,β-(2-O-methylphosphono-2-phenylacetamido)penicillanic acid disodium salt] | 125 µg/mL | – | 50 µg/mL | – | 500 µg/mL | 250 µg/mL | 125 µg/mL | 12.5 µg/mL | 12.5 µg/mL | 25 µg/mL | 50 µg/mL | 50 µg/mL | – | > 500 µg/mL | > 500 µg/mL | > 500 µg/mL | 0.5 µg/mL | > 500 µg/mL | > 500 µg/mL | MIC (E. coli JT 425): 50 µg/mL; MIC ([1]; Ps. aeruginosa NCTC 10662 10^-2): 500 µg/mL; MIC (P. rettgeri): 12.5 µg/mL |
| CO[C@@]1(NC(=O)C(c2ccc(N)cc2)S(=O)(=O)O)C(=O)N2[C@@H](C(=O)O)C(C)(C)S[C@@H]21 (stereo partly drawn) [Example 4, Disodium 6,β-[2-(4-aminophenyl)-2-sulphoacetamido]-6,α-methoxy-penicillanate] | 10 µg/mL | 10 µg/mL | 10 µg/mL | 25 µg/mL | 25 µg/mL | 25 µg/mL | 25 µg/mL | 2.5 µg/mL | 5 µg/mL | 5 µg/mL | 10 µg/mL | 5 µg/mL | 6 µg/mL | > 100 µg/mL | > 100 µg/mL | > 100 µg/mL | 0.05 µg/mL | > 100 µg/mL | 25 µg/mL | – |
| CO[C@@]1(NC(=O)C(c2ccc(O)cc2)S(=O)(=O)O)C(=O)N2[C@@H](C(=O)O)C(C)(C)S[C@@H]21 (stereo partly drawn) [Example 8, Disodium 6,β-[2-(4-hydroxyphenyl)-2-sulphoacetamido]-6,α-methoxypenicillanate] | 25 µg/mL | 25 µg/mL | 25 µg/mL | 50 µg/mL | 50 µg/mL | 25 µg/mL | 100 µg/mL | 10 µg/mL | 10 µg/mL | 25 µg/mL | 25 µg/mL | 25 µg/mL | 10 µg/mL | > 100 µg/mL | > 100 µg/mL | > 100 µg/mL | 0.2 µg/mL | > 100 µg/mL | 25 µg/mL | – |
